In publication PMC11375437, “Selective labelling of GBA2 in cells with fluorescent β-D-arabinofuranosyl cyclitol aziridines” (Chemical Science, 2024):

Target: T1, GBA2 (Mus musculus, UniProt Q69ZF3)
T1 construct: from tissue; host or cells: mouse brain homogenate
T1 sequence (Q69ZF3 1-918): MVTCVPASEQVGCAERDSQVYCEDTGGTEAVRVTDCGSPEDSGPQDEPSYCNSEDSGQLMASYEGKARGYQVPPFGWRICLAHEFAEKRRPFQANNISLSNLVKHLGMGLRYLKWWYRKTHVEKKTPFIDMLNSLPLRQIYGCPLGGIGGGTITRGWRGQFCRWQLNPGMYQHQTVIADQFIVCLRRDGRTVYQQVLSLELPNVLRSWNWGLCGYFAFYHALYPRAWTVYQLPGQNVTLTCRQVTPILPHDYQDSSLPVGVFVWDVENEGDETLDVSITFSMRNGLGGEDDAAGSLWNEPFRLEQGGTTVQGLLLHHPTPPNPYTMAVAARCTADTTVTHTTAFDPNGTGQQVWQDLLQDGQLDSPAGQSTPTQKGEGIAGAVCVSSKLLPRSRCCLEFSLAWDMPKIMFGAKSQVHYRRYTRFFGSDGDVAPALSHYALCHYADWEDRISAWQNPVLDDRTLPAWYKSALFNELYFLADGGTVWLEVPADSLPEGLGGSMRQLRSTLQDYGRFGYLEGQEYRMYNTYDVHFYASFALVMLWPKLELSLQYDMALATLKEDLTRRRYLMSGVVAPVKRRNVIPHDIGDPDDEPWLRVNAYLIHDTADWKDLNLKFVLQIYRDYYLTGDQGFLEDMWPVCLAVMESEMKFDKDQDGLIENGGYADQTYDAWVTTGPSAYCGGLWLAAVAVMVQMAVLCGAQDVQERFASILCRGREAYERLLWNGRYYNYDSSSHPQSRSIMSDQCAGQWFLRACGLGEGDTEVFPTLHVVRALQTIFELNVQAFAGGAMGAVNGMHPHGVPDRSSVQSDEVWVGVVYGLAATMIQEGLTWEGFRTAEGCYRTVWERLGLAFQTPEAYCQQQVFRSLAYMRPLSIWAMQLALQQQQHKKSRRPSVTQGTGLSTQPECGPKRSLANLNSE
Test: Labelling of GBA2 orthologue in mice brain homogenates
Assay type: biochemical
Details: 1 h at 37 °C; ABP 3 and 7 at 1 μM, ABP 4 and 5 at 2.5 μM
Description: GBA2 orthologs are highly conserved among different species. […] The labelling capability of β-D-Araf aziridine ABPs toward GBA2 orthologs in these species was therefore evaluated. Homogenates of zebrafish larvae or mice brain homogenates were incubated with β-D-Araf ABPs 3–5 or broad-spectrum ABP 7 (Fig. 4).
Fig. 4 Fluorescent gel images of selective labelling of GBA2 orthologues by β-D-Araf aziridine ABPs in different species. Cyclophellitol-aziridine ABP 7 (1 μM) and β-D-Araf ABPs (ABP 3 at 1 μM and ABP 4 and 5 at 2.5 μM) were incubated with homogenates of zebrafish (15 μg total protein) and mice brain (15 μg total protein) for 1 h at 37 °C. […]
were transferred to nitrocellulose membrane for western blotting. Ponceau S staining was used to show total protein loading. […]
2.12 Reactivity of β-D-Araf aziridines towards GBA2 orthologue in other species β-D-Araf aziridine ABP 3-5 or ABP 7 was incubated with homogenates of zebrafish (Danio rerio) larvae or mice brain for 1 h at 37 °C. […] The zebrafish homogenates were passed through a desalting column (in the same way as described for the irreversibility evaluation above) to remove interference from biological pigments when scanning at λEX 473 nm and λEM ≥ 510 nm for BODIPY green fluorescence. […]

## CN1/C(=C/C=C/C=C/C2=[N+](CCCCCC(=O)NCc3cn(CCCCCCCCN4[C@@H]5[C@H](CO)[C@@H](O)[C@H](O)[C@@H](O)[C@@H]54)nn3)c3ccccc3C2(C)C)C(C)(C)c2ccccc21 (stereo partly shown) [ABP 7]
  Labelling selectivity in mice brain homogenates: show cross-reactivity towards GBA1
